{"source": "patent US11324826B2", "about": "“Multifunctional treatment and diagnostic compositions and methods” (priority 2018, dated 2022)", "key": {"[1]": {"settings": "in water, prior art literature value; cited from earlier work"}, "BL21 E. coli [2]": {"system": "BL21 E. coli", "experiment": "In vitro BL21 E. coli growth inhibition in aerobic conditions, visible light versus dark", "assay_type": "cell-based", "settings": "growth recorded after 48 hours", "description": "Method to assess bacteria inhibition examined in vitro effects with BL21 E. coli. […] Prior art procedure reported in Photochemistry and Photobiology 2010, 86 (4), 890-894 was followed to grow E. coli cells, even though other prior art procedures can be used. BL21 was selected because of availability. […] Luria Broth (LB)-Lennox formulation were allowed to grow in an incubator at 28° C. shaking at 250 rpm until the beginning of their exponential growth phase (A600=0.2). For each experiment, one milliliter of the E. coli solution was centrifuged and washed with sterile water once. After removing washing liquid, the E. coli solutions were then re-suspended in 500.0 μL of sterile water and 200 μL of stock solutions of each of the following were added: (a) DHN (4.2×10^−44.20×10^−4 M), (b) Juglone (4.2×10^−44.20×10^−4 M), (c) Fe(III) (3.5×10^−4 M) and TMPyP (2.1×10^−52.10×10^−5 M), (d) DHN (4.2×10^−44.20×10^−4 M) and TMPyP (2.1×10^−52.10×10^−5 M), (e) Fe(III) (3.5×10^−4M), DHN (4.2×10^−4 M) and TMPyP (2.1×10^−5 M), (f) Fe(III) (3.5×10^−4 M), Juglone (4.2×10^−4 M) and TMPyP (2.1×10^−5 M), and TMPyP (2.1×10^−5).\nControls of each sample were prepared similarly and kept covered to assure that no light was reacted with the TMPyP while other samples were irradiated in a Rayonet photoreactor for 10 minutes. After irradiation, the 700.0 μL samples were briefly vortexed and then 20.0 μL of each sample was spread evenly over individual petri dishes containing LB agar. The plates were inverted, then incubated at 28° C. for 48 hours.\nA “light versus dark” comparison study was performed by introducing treatment composition into two equal concentrations of E. coli bacteria solutions, one E. coli solution was kept in dark while other was irradiated with visible light.\nAs part of the test, a comparison study, including “light versus dark” was performed of treatment composition (FIG. 22E Fe(III) (3.5×10^−4 M), DHN (4.2×10^−4M) and TMPyP (2.1×10^−5 M), versus FIG. 22A DHN (4.2×10^−4 M), FIG. 22B Juglone (4.2×10^−4 M), FIG. 22C Fe(III) (3.5×10^−4 M) and TMPyP (2.1×10^−5 M), FIG. 22D DHN (4.2×10^−4 M) and TMPyP (2.1×10^−5 M), and FIG. 22F Fe(III) (3.5×10^−4 M), Juglone (4.2×10^−4 M) and TMPyP (2.1×10^−5 M)."}, "BL21 E. coli [3]": {"system": "BL21 E. coli", "experiment": "In vitro BL21 E. coli growth inhibition in hydrogen peroxide rich environment under dark conditions", "assay_type": "cell-based", "settings": "alone at the experimental concentration (Fe(III) 1.0×10^−4 M or 1.0×10^−3 M; 400 μM H2O2)", "description": "To determine utility for treatment of bacteria of the claimed treatment compositions in an aqueous H2O2 rich environment (typical tumor environment), E. coli bacteria were mixed with the treatment composition in the presence of H2O2 in dark conditions under normal room temperature and pressure. […] A series of control reactions were carried out to see if alone, any of Fe(III) ions with 1.0×10^−4 M concentration (FIG. 23A) or Fe(III) ions with 1.0×10^−3 M concentration (FIG. 23B) or 400 μM H2O2 (FIG. 23C) can inhibit the growth of E. coli bacteria under identical reaction conditions."}, "[4]": {"experiment": "Photooxidation of DHN under visible light irradiation in anaerobic (argon purged) solution, DHN absorption monitored at 301 nm", "settings": "for Photooxidation of DHN (in words): anaerobic; for Rate, first order rate constant of DHN photooxidation: anaerobic conditions, visible light, acetonitrile:water (6:4)", "description": "First, the treatment composition (DHN+TMPyP+Fe(III)) was compared against commercially available Fe(III)TMPyP and prepared TMPyP+Fe(II), all in presence of DHN, to determine if any or all can produce hydroxyl radical (OH) in anaerobic condition. An aqueous solution of TMPyP and DHN was thoroughly purged with argon followed by irradiation with visible light. DHN's absorption at 301 nm was recorded in 2 minute intervals to monitor in situ production of OH in solution."}, "[5]": {"experiment": "Photooxidation of DHN under visible light irradiation in aerobic solution, DHN absorption monitored at 301 nm", "settings": "for Rate, first order rate constant of DHN photooxidation: aerobic conditions, visible light, acetonitrile:water (6:4)", "description": "For a typical experiment, microliter amounts of standard solutions were combined, for illustration not limitation, microliter amounts of a standard solution of Fe(III) solutions (30 μL of 1.0×10^−2 M) and DHN solution (36 μL of 1.0×10^−2 M) added into a cuvette containing 3 mL of solution TMPyP (6.00×10^−6 M). Quartz cuvettes with 1 cm path-length and 3 mL volume were used for all measurements.\nFor singlet oxygenation of 1,5-dihydroxynaphthalene (DHN) by TMPyP in aqueous solution, a 3 mL solution of DHN (1.2×10^−4 M) and TMPyP (6.0×10^−6 M) was prepared by mixing 36 μL of 1×10^−2 M of DHN standard solution and 18 μL of 1×10^−3 M of TMPyP standard solution with ultrapure water. The solution was prepared at room temperature in an open atmosphere. Photooxygenation of samples was performed in a Rayonet photoreactor and monitored by recording a decrease of UV-vis absorption. For example, photoxygenation of DHN by TMPyP was performed in a Rayonet photoreactor for approximately twenty minutes at 28° C. and the photooxygenation of DHN was monitored by recording a decrease of UV-vis absorption of DHN at 301 nm for 20 minutes in 2 minutes intervals. The effect of metal ions on singlet oxygen generation was studied similarly except with the addition of microliter amounts of M^2+ or M^3+ ions (1×10^−2 M) (positively charged cations with a +2 charge or a +3 charge) into a DHN/TMPyP aqueous solution."}, "[6]": {"settings": "aqueous solution 6.0×10^−6 M, excitation 423 nm, calculated with Equation 3", "quoted_text": "For fluorescence study, three solutions of 3 mL volume were prepared. Study solution 1 (aqueous solution of TMPyP) was prepared by mixing 18 μL of 1.0×10^−3 M TMPyP with ultrapure water. Study solution 2 (aqueous solution of TMPyP and Fe(III) ions) was made by mixing 18 μL of 1.0×10^−3 M TMPyP and 30 μL of 1.0×10^−2 M iron(III) chloride with ultrapure water. Study solution 3 (aqueous solution of TMPyP and DHN) was prepared by mixing 18 μL of 1.0×10^−3 M TMPyP and 36 μL of 1.0×10^−2 M DHN with ultrapure water. Fluorescence emission was measured upon excitation of each solution at 423 nm with an excitation slit width of 10.0 nm and an emission slit width of 12.0 nm. Each experiment was carried out at room temperature and under normal atmospheric conditions.\nCrystal violet (1.0×10^−5 M) with a known ΦF=0.020 in water was used as a standard.\nThen the fluorescence quantum yield (ΦF) of TMPyP was calculated by using Equation 3 and crystal violet (1.0×10^−5 M) as a standard with ΦF=0.020 in water, fluorescence quantum yield known from the prior art.\n[formula] where in Equation 3, A is the absorbance, F represents the area under the emissions curve, and n is the refractive index of the solvent used."}, "[7]": {"settings": "reported in the prior art; cited from earlier work"}, "[8]": {"settings": "aqueous solution, 655 nm CW laser, calculated with Equation 1", "quoted_text": "Singlet Oxygen Quantum Yield (ΦΔ) of TMPyP was determined using DHN (1.2×10^−4 M) as a singlet oxygen quencher and methylene blue (MB) as a reference standard. A 3 mL solution of TMPyP (6.0×10^−6 M) solution and MB (1.0×10^−5 M) solution both of which contain DHN (1.2×10^−4 M) were prepared. Each solution was irradiated with a 655 nm CW laser and the UV-vis spectrum of each solution was recorded at 1 min intervals for 5 minutes. The quantum yields were calculated with Equation 1 by using ΦΔ(s) of MB (ΦΔ=0.52) reported in the prior art.\n[formula] In Equation 1, S is the slope of the plot of the absorbance versus irradiation, and F is the absorption correction factor.\nTo determine the efficiency of TMPyP for singlet oxygen generation in aqueous solution, ^1O2 quantum yield (ΦΔ) was calculated by using methylene blue as a standard with a known ΦΔ of 0.52. […] Most importantly, the reaction of DHN and ^1O2 can be monitored by observing gradual decrease of the absorption of DHN peaks from 295 nm to 355 nm and so DHN can be used as a ^1O2 probe for ^1O2 quantum yield (ΦΔ) measurement.\nAbove cited Equation 1 was followed to calculate ^1O2 quantum yield (ΦΔ) for TMPyP, where S is the slope of the plot of the absorbance versus irradiation, and F is the absorption correction factor."}, "[9]": {"settings": "irradiated with visible light 10 minutes"}}, "note": "Several values for one entry are separate records, joined by “and”; a condition that tells them apart may be missing. Identical values can stand only once."}
{"smiles": "CN(C)c1ccc(C(=C2C=CC(=[N+](C)C)C=C2)c2ccc(N(C)C)cc2)cc1", "note": "[Crystal violet]", "values": [{"measurement": "Fluorescence quantum yield (ΦF), prior art", "setting": "[1]", "result": 0.020}]}
{"smiles": "Oc1cccc2c(O)cccc12", "note": "[DHN, 1,5-dihydroxynaphthalene]", "values": [{"measurement": "Inhibition of E. coli growth", "setting": "BL21 E. coli [2]; [9]", "result": "very marginal inhibition effect"}, {"measurement": "Inhibition of E. coli growth", "setting": "BL21 E. coli [2]; kept in dark", "result": "almost no inhibition"}]}
{"smiles": "[Cl][Fe]([Cl])[Cl]", "note": "[Fe(III) ions, iron (III) chloride]", "values": [{"measurement": "Inhibition of growth of E. coli, control alone", "setting": "BL21 E. coli [3]", "result": "No noticeable inhibition"}]}
{"smiles": "C[n+]1ccc(C2=C3C=CC(=N3)C(c3cc[n+](C)cc3)=c3ccc4[n]3[Fe+][n]3c2ccc3C(c2cc[n+](C)cc2)=C2C=CC(=N2)C=4c2cc[n+](C)cc2)cc1", "note": "[Fe(III)TMPyP, Fe(III) bound meso-tetrakis(N-methyl-4-pyridyl) porphyrin]", "values": [{"measurement": "Rate constant k of photo-oxidation of DHN", "setting": "[4]; anaerobic aqueous environment, FIG. 12", "result": "5.5e-05", "unit": "s⁻¹"}, {"measurement": "Rate constant of photooxidation of DHN", "setting": "[5]; aerobic aqueous environment, FIG. 11", "result": "4.67e-05", "unit": "s⁻¹"}, {"measurement": "Rate Constant, kobs, of DHN decay kinetics", "setting": "[5]; aerobic aqueous solution as printed, DHN 1.2×10^−4 M, porphyrin 6.0×10^−6 M, iron 1.0×10^−4 M, 301 nm", "result": "5.5e-05", "unit": "s⁻¹"}]}
{"smiles": "OO", "note": "[H2O2, hydrogen peroxide]", "values": [{"measurement": "Inhibition of growth of E. coli, control alone", "setting": "BL21 E. coli [3]", "result": "No noticeable inhibition"}]}
{"smiles": "O=C1C=CC(=O)c2c(O)cccc21", "note": "[Juglone, 5-hydroxy-1,4-naphthalenedione]", "values": [{"measurement": "Inhibition of E. coli growth", "setting": "BL21 E. coli [2]; [9]", "result": "complete inhibition"}, {"measurement": "Inhibition of E. coli growth", "setting": "BL21 E. coli [2]; kept in dark", "result": "complete inhibition"}]}
{"smiles": "C[n+]1ccc(-c2c3nc(c(-c4cc[n+](C)cc4)c4ccc([nH]4)c(-c4cc[n+](C)cc4)c4nc(c(-c5cc[n+](C)cc5)c5ccc2[nH]5)C=C4)C=C3)cc1.[Cl-].[Cl-].[Cl-].[Cl-]", "note": "[TMPyP, meso-tetra(N-methyl-4-pyridyl) porphine tetrachloride]", "values": [{"measurement": "Fluorescence quantum yield (ΦF), prior art", "setting": "[1]", "result": 0.016}, {"measurement": "Fluorescence quantum yield (ΦF)", "setting": "[6]", "result": 0.0139}, {"measurement": "Photooxidation of DHN (in words)", "setting": "[4]; absence of Fe(III) ions, FIG. 13", "result": "negligible photooxidation"}, {"measurement": "Photooxidation of DHN (in words)", "setting": "[4]; presence of Fe(III) ions, FIG. 14", "result": "substantial photooxidation"}, {"measurement": "Maximum rate of photooxidation of DHN by TMPyP (k)", "setting": "[5]; aerobic, Fe(III) ions about 50 μL of 1.0×10^−2 M", "result": 0.000943, "unit": "s⁻¹"}, {"measurement": "Rate constant of DHN photooxidation by TMPyP", "setting": "[5]; aerobic, metal free solution", "result": 0.000658, "unit": "s⁻¹"}, {"measurement": "Rate of photooxidation of DHN by TMPyP (k)", "setting": "[5]; aerobic, upon addition of 10 μL of 1.0×10^−3 M of Fe(III) ions", "result": 0.00039, "unit": "s⁻¹"}, {"measurement": "Rate of photooxidation of DHN by TMPyP (k)", "setting": "[5]; aerobic, upon addition of 75 μL of 1.0×10^−2 M of Fe(III) ions", "result": 0.000568, "unit": "s⁻¹"}, {"measurement": "Singlet oxygen quantum yield (ΦΔ), prior art", "setting": "[7]", "result": "0.58 and 0.74 and 0.9"}, {"measurement": "Singlet oxygen quantum yield (ΦΔ)", "setting": "[8]", "result": 0.503}]}
{"smiles": "CN(C)c1ccc2nc3ccc(=[N+](C)C)cc-3sc2c1", "note": "[methylene blue]", "values": [{"measurement": "Singlet oxygen quantum yield (ΦΔ), prior art", "setting": "[7]", "result": 0.52}]}
{"smiles": "Oc1cccc(-c2c3nc(c(-c4cccc(O)c4)c4ccc([nH]4)c(-c4cccc(O)c4)c4nc(c(-c5cccc(O)c5)c5ccc2[nH]5)C=C4)C=C3)c1", "note": "[m−THP, meso-tetra(m-hydroxyphenyl)porphine]", "values": [{"measurement": "Rate, first order rate constant of DHN photooxidation", "setting": "[4]", "result": "4e-05", "unit": "s⁻¹"}, {"measurement": "Rate, first order rate constant of DHN photooxidation", "setting": "[5]", "result": 0.0012, "unit": "s⁻¹"}]}
{"smiles": "Oc1ccc(-c2c3nc(c(-c4ccc(O)cc4)c4ccc([nH]4)c(-c4ccc(O)cc4)c4nc(c(-c5ccc(O)cc5)c5ccc2[nH]5)C=C4)C=C3)cc1", "note": "[p−THP, meso-tetra(p-hydroxyphenyl)porphine]", "values": [{"measurement": "Rate, first order rate constant of DHN photooxidation", "setting": "[4]", "result": "2e-05", "unit": "s⁻¹"}, {"measurement": "Rate, first order rate constant of DHN photooxidation", "setting": "[5]", "result": 0.0008, "unit": "s⁻¹"}]}
